As usually defined, the IC50 is the point on the concentration scale where inhibition reaches its midpoint.

The text below walks through data of US20070219203A1, “Arylalkylamino-substituted quinazoline analogues” (Neurogen Corporation, priority 2004, published 2007).

In the assay the target is T1, human capsaicin receptor (Homo sapiens, UniProt Q8NER1).
T1 construct: expressed in transfected cells
Kind of assay: Calcium mobilization assay, antagonist activity (Example 6). The format is cell-based. The settings on record: 50% decrease in fluorescence response of cells expressing human capsaicin receptor exposed to capsaicin. As to the method:
A cDNA encoding full length human capsaicin receptor (SEQ ID NO:1, 2 or 3 of U.S. Pat. No. 6,482,611) is subcloned in the plasmid pBK-CMV (Stratagene, La Jolla, Calif.) for recombinant expression in mammalian cells.
Human embryonic kidney (HEK293) cells are transfected with the pBK-CMV expression construct encoding the full length human capsaicin receptor using standard methods. The transfected cells are selected for two weeks in media containing G418 (400 μg/ml) to obtain a pool of stably transfected cells. Independent clones are isolated from this pool by limiting dilution to obtain clonal stable cell lines for use in subsequent experiments.
Cells transfected with expression plasmids (as described in Example 4) and thereby expressing human capsaicin receptor are seeded and grown to 70-90% confluency in FALCON black-walled, clear-bottomed 96-well plates (#3904, BECTON-DICKINSON, Franklin Lakes, N.J.). The culture medium is emptied from the 96 well plates and […] calcium sensitive dye (Molecular Probes, Eugene, Oreg.) is added to each well (dye solution: 1 mg […], 440 μL DMSO and 440 μl 20% pluronic acid in DMSO, diluted 1:250 in Krebs-Ringer HEPES (KRH) buffer (25 mM HEPES, 5 mM KCl, 0.96 mM NaH2PO4, 1 mM MgSO4, 2 mM CaCl2, 5 mM glucose, 1 mM probenecid, pH 7.4), 50 μl diluted solution per well). Plates are covered with aluminum foil and incubated at 37° C. for 1-2 hours in an environment containing 5% CO2. After the incubation, the dye is emptied from the plates, and the cells are washed once with KRH buffer, and resuspended in KRH buffer.
To measure the ability of a test compound to agonize or antagonize a calcium mobilization response in cells expressing capsaicin receptors to capsaicin or other vanilloid agonist, the EC50 of the agonist capsaicin is first determined. An additional 20 μl of KRH buffer and 1 μl DMSO is added to each well of cells, prepared as described above. 100 μl capsaicin in KRH buffer is automatically transferred by the FLIPR instrument to each well. Capsaicin-induced calcium mobilization is monitored using either FLUOROSKAN ASCENT (Labsystems; Franklin, Mass.) or FLIPR (fluorometric imaging plate reader system; Molecular Devices, Sunnyvale, Calif.) instruments. Data obtained between 30 and 60 seconds after agonist application are used to generate an 8-point concentration response curve, with final capsaicin concentrations of 1 nM to 3 μM. KALEIDAGRAPH software (Synergy Software, Reading, Pa.) is used to fit the data to the equation: y=a*(1/(1+(b/x)^c)) to determine the 50% excitatory concentration (EC50) for the response. In this equation, y is the maximum fluorescence signal, x is the concentration of the agonist or antagonist (in this case, capsaicin), a is the Emax, b corresponds to the EC50 value and c is the Hill coefficient. Determination of Agonist Activity
Test compounds are dissolved in DMSO, diluted in 20 μl KRH buffer so that the final concentration of test compounds in the assay well is between 1 μM and 5 μM, and added to cells prepared as described above. The 96 well plates containing prepared cells and test compounds are incubated in the dark, at room temperature for 0.5 to 6 hours. It is important that the incubation not continue beyond 6 hours. Just prior to determining the fluorescence response, 100 μl capsaicin in KRH buffer at twice the EC50 concentration determined as described above is automatically added by the FLIPR instrument to each well of the 96 well plate for a final sample volume of 200 μl and a final capsaicin concentration equal to the EC50. The final concentration of test compounds in the assay wells is between 1 μM and 5 μM. […] The concentration of antagonist required to provide a 50% decrease, relative to the response observed in the presence of capsaicin and without antagonist, is the IC50 for the antagonist, and is preferably below 1 micromolar, 100 nanomolar, 10 nanomolar or 1 nanomolar.
A general note: A change in cytosolic calcium serves as a functional read-out for many receptors and channels.

T1 sequence (Q8NER1 whole entry): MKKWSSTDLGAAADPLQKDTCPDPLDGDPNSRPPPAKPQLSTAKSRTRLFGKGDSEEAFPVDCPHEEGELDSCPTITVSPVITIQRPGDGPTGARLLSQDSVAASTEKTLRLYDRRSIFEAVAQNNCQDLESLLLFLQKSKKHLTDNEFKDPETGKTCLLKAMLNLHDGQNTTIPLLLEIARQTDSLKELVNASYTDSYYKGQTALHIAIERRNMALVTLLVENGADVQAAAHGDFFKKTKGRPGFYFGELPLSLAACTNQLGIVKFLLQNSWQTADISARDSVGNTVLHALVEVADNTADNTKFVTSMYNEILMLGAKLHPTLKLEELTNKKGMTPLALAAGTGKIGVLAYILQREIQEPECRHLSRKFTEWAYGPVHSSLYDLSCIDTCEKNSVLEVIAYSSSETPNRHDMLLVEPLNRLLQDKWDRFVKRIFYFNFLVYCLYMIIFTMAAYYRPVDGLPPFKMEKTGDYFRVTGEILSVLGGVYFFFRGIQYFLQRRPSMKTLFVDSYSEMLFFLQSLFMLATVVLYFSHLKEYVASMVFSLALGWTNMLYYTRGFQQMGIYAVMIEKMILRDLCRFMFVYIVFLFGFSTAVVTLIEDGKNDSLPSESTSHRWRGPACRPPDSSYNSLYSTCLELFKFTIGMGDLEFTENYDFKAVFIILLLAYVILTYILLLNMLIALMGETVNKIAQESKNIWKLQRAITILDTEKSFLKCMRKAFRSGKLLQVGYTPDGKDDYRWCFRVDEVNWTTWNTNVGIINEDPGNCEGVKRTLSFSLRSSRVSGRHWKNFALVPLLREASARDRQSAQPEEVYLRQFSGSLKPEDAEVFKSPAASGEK

For the compound `Cc1cccc(CCNc2ncnc3cc(-c4ncccc4C(F)(F)F)ccc23)c1` [Compound 66, (2-m-Tolyl-ethyl)-[7-(3-trifluoromethyl-pyridin-2-yl)-quinazolin-4-yl]-amine], under “Table II”, the concentration for half-maximal inhibition (IC50) is ≤ 1000 nM.
As for `CC(C)COCc1nc(NCCc2cccc(Cl)c2)c2ccc(-c3ncccc3Cl)nc2n1` [Compound 48, N-[2-(3-chlorophenyl)ethyl]-7-(3-chloropyridin-2-yl)-2-(isobutoxymethyl)pyrido[2,3-d]pyrimidin-4-amine], the concentration for half-maximal inhibition (IC50) (Table I) is ≤ 1000 nM.
On the same count and under the same terms, the figure for `COc1cccc(CCNc2ncnc3cc(-c4ncccc4C(F)(F)F)ccc23)c1` [Compound 10, N-[2-(3-methoxyphenyl)ethyl]7-[3-(trifluoromethyl)pyridin-2-yl]quinazolin-4-amine] is ≤ 1000 nM; for `CC(C)COCc1nc(NCCc2ccc(C(F)(F)F)cc2)c2ccc(-c3ncccc3C(F)(F)F)nc2n1` [Compound 40, 2-(isobutoxymethyl)-N-{2-[4-(trifluoromethyl)phenyl]ethyl}-7-[3-(trifluoromethyl)pyridin-2-yl]pyrido[2,3-d]pyrimidin-4-amine] it is ≤ 1000 nM.
For `FC(F)(F)c1cccnc1-c1ccc2c(NCCc3ccccc3)nc(CN3CCSCC3)nc2c1` [Compound 97, Phenethyl-[2-thiomorpholin-4-ylmethyl-7-(3-trifluoromethyl-pyridin-2-yl)-quinazolin-4-yl]-amine], the IC50 (Table II) was ≤ 1000 nM.
The same measure, in the same setting: the same measure for `CCCC(CNc1ncnc2cc(-c3ncccc3C(F)(F)F)ccc12)c1ccccc1` (centres unmarked) [Compound 69, (2-Phenyl-pentyl)-[7-(3-trifluoromethyl-pyridin-2-yl)-quinazolin-4-yl]-amine]: ≤ 1000 nM; for `Cc1ccccc1CCNc1nc(CN(C)C2CCCCC2)nc2cc(-c3ncccc3C(F)(F)F)ccc12` [Compound 158, [2-[(Cyclohexyl-methyl-amino)-methyl]-7-(3-trifluoromethyl-pyridin-2-yl)-quinazolin-4-yl]-(2-o-tolyl-ethyl)-amine]: ≤ 1000 nM.
Consider `CC(C)COCc1nc(NCCc2ccccc2Cl)c2ccc(-c3ncccc3Cl)nc2n1` [Compound 47, N-[2-(2-chlorophenyl)ethyl]-7-(3-chloropyridin-2-yl)-2-(isobutoxymethyl)pyrido[2,3-d]pyrimidin-4-amine], for which the IC50 (Table I) was ≤ 1000 nM.
Same read-out and setting: the figure for `FC(F)(F)c1cccnc1-c1ccc2c(NCCc3ccccc3)ncnc2c1` [Compound 22, N-(2-phenylethyl)-7-[3-(trifluoromethyl)pyridin-2-yl]quinazolin-4-amine] is ≤ 1000 nM.
As to `COc1ccc(CCNc2ncnc3cc(-c4ncccc4C(F)(F)F)ccc23)cc1` [Compound 11, N-[2-(4-methoxyphenyl)ethyl]-7-[3-(trifluoromethyl)pyridin-2-yl]quinazolin-4-amine], where the note is “Table I”, the IC50 is ≤ 1000 nM.
On the same count and under the same terms, the figure for `CC(C)COCc1nc(NCCc2cccc(F)c2)c2ccc(-c3ncccc3Cl)nc2n1` [Compound 45] is ≤ 1000 nM.
Turning to `FC(F)(F)c1cccnc1-c1ccc2c(NCCc3ccccc3)nc(CN3CCCCCCC3)nc2c1` [Compound 103, [2-Azocan-1-ylmethyl-7-(3-trifluoromethyl-pyridin-2-yl)-quinazolin-4-yl]-phenethyl-amine], the IC50 (Table II) was ≤ 1000 nM.
Take `C=C(C)CN(CC)Cc1nc(NCCc2ccccc2)c2ccc(-c3ncccc3C(F)(F)F)cc2n1` [Compound 154, [2-{[Ethyl-(2-methyl-allyl)-amino]-methyl}-7-(3-trifluoromethyl-pyridin-2-yl)-quinazolin-4-yl]-phenethyl-amine]: the half-inhibitory concentration (IC50) (Table II) is ≤ 1000 nM.
On to `COc1ccccc1CCNc1ncnc2cc(-c3ncccc3C(F)(F)F)ccc12` [Compound 9, N-[2-(2-methoxyphenyl)ethYl]-7-{3-(trifluoromethyl)pyridin-2-yl]quinazolin-4-amine], for which the IC50 (Table I) is ≤ 1000 nM.
For `CCOCc1nc(NCCc2ccccc2C(F)(F)F)c2ccc(-c3ncccc3Cl)nc2n1` [Compound 56, 7-(3-chloropyridin-2-yl)-2-(ethoxymethyl)-N-{2-[2-(trifluoromethyl)phenyl]ethyl}pyrido [2,3-d]pyrimidin-4-amine], the 50% inhibitory concentration (IC50) (Table I) was ≤ 1000 nM.
As to `C=C(C)CN(CC)Cc1nc(NCCc2ccccc2C)c2ccc(-c3ncccc3C(F)(F)F)cc2n1` [Compound 155, [2-{[Ethyl-(2-methyl-allyl)-amino]-methyl}-7-(3-trifluoromethyl-pyridin-2-yl)-quinazolin-4-yl]-(2-o-tolyl-ethyl)-amine], the IC50 (Table II) was ≤ 1000 nM.
`Fc1cccc(F)c1CCNc1ncnc2cc(-c3ncccc3C(F)(F)F)ccc12` [Compound 26, N-[2-(2,6-difluorophenyl)ethYl]-7-[3-(trifluoromethyl)pyridin-2-yl]quinazolin-4-amine]: the IC50 (Table I) was ≤ 1000 nM.
Regarding `CC(C)COCc1nc(NCCc2ccc(F)cc2)c2ccc(-c3ncccc3Cl)nc2n1` [Compound 46, 7-(3-chloropyridin-2-yl)-N-[2-(4-fluorophenyl)ethyl]-2-(isobutoxymethyl)pyrido[2,3-d]pyrimidin-4-amine], where the note is “Table I”, the IC50 is ≤ 1000 nM.
`CCCCCCN(CCCCCC)Cc1nc(NCCc2ccccc2C)c2ccc(-c3ncccc3C(F)(F)F)cc2n1` [Compound 174, [2-Dihexylaminomethyl-7-(3-trifluoromethyl-pyridin-2-yl)-quinazolin-4-yl]-(2-o-tolyl-ethyl)-amine]: the IC50 (Table II) is ≤ 1000 nM.
On to `CC(C)COCc1nc(NCC(=O)c2cccc(Cl)c2)c2ccc(-c3ncccc3C(F)(F)F)nc2n1` [Compound 60, 1-(3-chlorophenyl)-2-({2-(isobutoxymethyl)-7-[3-(trifluoromethyl)pyridin-2-yl]pyrido[2,3-d]pyrimidin-4-yl}amino)ethanone], for which, for the setting “Table I”, the IC50 was ≤ 1000 nM.
With `CCCCN(CCCC)Cc1nc(NCCc2ccccc2C)c2ccc(-c3ncccc3C(F)(F)F)cc2n1` [Compound 146], the half-inhibitory concentration (IC50) (Table II) is ≤ 1000 nM.
As to `Cc1ccccc1CCNc1nc(COCC(C)C)nc2nc(-c3ncccc3Cl)ccc12` [Compound 58, 7-(3-chloropyridin-2-yl)-2-(isobutoxymethyl)-N-[2-(2-methylphenyl)ethyl]pyrido[2,3-d]pyrimidin-4-amine], the IC50 (Table I) was ≤ 1000 nM.
Turning to `FC(F)(F)c1cccnc1-c1ccc2c(NC3CCc4ccccc4C3)ncnc2c1` (centres unmarked) [Compound 77, (1,2,3,4-Tetrahydro-naphthalen-2-yl)-[7-(3-trifluoromethyl-pyridin-2-yl)-quinazolin-4-yl]-amine], where the note is “Table II”, the IC50 is ≤ 1000 nM.
In the case of `Fc1ccc(CCNc2ncnc3cc(-c4ncccc4C(F)(F)F)ccc23)cc1F` [Compound 27, N-[2-(3,4-difluorophenyl)ethyl]-7-[3-(trifluoromethyl)pyridin-2-yl]quinazolin-4-amine], for the setting “Table I”, the IC50 was ≤ 1000 nM.
The same measure, in the same setting: the figure for `COc1ccc(CCNc2nc(COCC(C)C)nc3nc(-c4ncccc4C(F)(F)F)ccc23)cc1` [Compound 43, 2-(isobutoxymethyl)-N-[2-(4-methoxyphenyl)ethyl]-7-[3-(trifluoromethyl)pyridin-2-yl]pyrido[2,3-d]pyrimidin-4-amine] is ≤ 1000 nM.
In the case of `CC1CC(C)CN(Cc2nc(NCCc3ccccc3)c3ccc(-c4ncccc4C(F)(F)F)cc3n2)C1` (centres unmarked) [Compound 176, [2-(3,5-Dimethyl-piperidin-1-ylmethyl)-7-(3-trifluoromethyl-pyridin-2-yl)-quinazolin-4-yl]-phenethyl-amine], for the setting “Table II”, the half-maximal inhibitory concentration (IC50) is ≤ 1000 nM.
